In general, EC50 refers to the concentration that produces a half-maximal response. Low values mean a more potent agent, high ones a less potent agent.

In this test the target is 5-HT2B receptor (Homo sapiens, UniProt P41595). The test can be described thus: h-5HT2B positive allosteric modulator (PAM) assay in HEK293 cells. It counts as cell-based. More on the design: expressed in transfected cells; host or cells: HEK293, stably transfected. Particulars: for Emax (% of serotonin): PAM mode. The procedure:
Compound potency (EC50) and efficacy (Max response) against the human 5-HT2B receptor in stably transfected HEK293 cells was determined in a GPC R cell-based assay.
For Positive Allosteric Modulator determination, cells were pre-incubated with sample followed by EC20 addition. Intermediate dilution of sample stocks was performed to generate 5×sample in assay buffer. 5 μL of 5×sample was added to cells and incubated at 37° C. for 10 minutes. 5 μL of agonist at 6×EC20 concentration was added and cells were incubated at 37° C. for 120 minutes. Final assay vehicle concentration was 1%. The results are expressed as a percent efficacy relative to the maximum response of the control ligand (serotonin) in Table 29.
For Positive Allosteric Modulator determination, cells were pre-incubated with sample followed by EC20 addition. Intermediate dilution of sample stocks was performed to generate 5×sample in assay buffer. 5 μL of 5×sample was added to cells and incubated at 37° C. for 10 minutes. 5 μL of agonist at 6×EC20 concentration was added and cells were incubated at 37° C. for 120 minutes. Final assay vehicle concentration was 1%. The results are expressed as a percent efficacy relative to the maximum response of the control ligand (serotonin) in Table 58.

The mark [1] stands for this setting: relative to maximum response of serotonin (Table 29).

Chain of 5-HT2B receptor (P41595 whole entry): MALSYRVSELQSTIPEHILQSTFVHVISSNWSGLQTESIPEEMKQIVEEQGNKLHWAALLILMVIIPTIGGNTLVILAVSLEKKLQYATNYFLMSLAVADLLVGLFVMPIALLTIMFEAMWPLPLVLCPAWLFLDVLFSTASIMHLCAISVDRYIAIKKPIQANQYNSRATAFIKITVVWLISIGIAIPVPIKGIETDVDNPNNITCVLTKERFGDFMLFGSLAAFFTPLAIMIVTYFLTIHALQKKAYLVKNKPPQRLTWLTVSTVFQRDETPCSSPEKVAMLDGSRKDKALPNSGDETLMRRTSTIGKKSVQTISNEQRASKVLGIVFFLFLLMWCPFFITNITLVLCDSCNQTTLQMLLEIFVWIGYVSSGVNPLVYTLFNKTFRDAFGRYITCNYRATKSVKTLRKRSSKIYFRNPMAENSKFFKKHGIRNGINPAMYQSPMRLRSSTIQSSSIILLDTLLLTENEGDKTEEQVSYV

The compound `COc1ccc2[nH]cc(CCN3CC[C@H](OC(F)F)C3)c2c1` [(S) I-67, (S)-3-(2-(3-(Difluoromethoxy)pyrrolidin-1-yl)ethyl)-5-methoxy-1H-indole] yielded a concentration for a half-maximal effect (EC50) of more than 10 µM. For the same compound, the “Emax (% of serotonin)” value (HEK293 cells, relative to max response of serotonin) is listed as 0 % of serotonin.

For the compound `[2H]C([2H])([2H])N(CCc1c[nH]c2ccc(SC)cc12)C([2H])([2H])[2H]` [Compound I-1, N,N-Bis(methyl-d3)-2-(5-(methylthio)-1H-indol-3-yl)ethan-1-amine], the concentration for a half-maximal effect (EC50) was more than 10 µM. In addition, the “Emax (% of serotonin)” value under setting [1] is listed as 0 % of serotonin.

The compound `CCN(C)CCc1c[nH]c2ccc(SC)cc12` [Compound I-13, N-Ethyl-N-methyl-2-(5-(methylthio)-1H-indol-3-yl)ethan-1-amine] showed a concentration giving a half-maximal response (EC50) of more than 10 µM. Besides, the “Emax (% of serotonin)” value under setting [1] is on record as 0 % of serotonin.

For the origin of these results see patent US20250257034A1, “INDOLE DERIVATIVES AS SEROTONERGIC AGENTS USEFUL FOR THE TREATMENT OF DISORDERS RELATED THERETO” (priority 2023, published 2025).
